Measured values reported in patent publication US20230406883A1, “COMPOUNDS AND THEIR USE IN TREATMENT OF TACHYKININ RECEPTOR MEDIATED DISORDERS” (Embark Biotech ApS, priority 2020, published 2023).
Where “and” joins values, the source holds several entries; their conditions need not be identical. Identical values can stand only once. Numbered stars: 1 amine (or outer) side, 2 acyl side, 3 side chain; on linkers, the order of the positions; unused ones are H or OH. Square brackets hold non-standard residues; d marks the D form. Peptide text beside a SMILES is read from it. * marks the point of attachment. C18 diacid = O=C(O)CCCCCCCCCCCCCCCCC(=O)*; γGlu = O=C(O)[C@H](CCC(=O)[*:2])N[*:1]; NMeL = CN[C@@H](CC(C)C)C(=O)O; hSer = N[C@@H](CCO)C(=O)O; Nle = CCCC[C@H](N)C(=O)O; AEEA = NCCOCCOCC(=O)O

Experiments:
[1] = Energy expenditure and weight loss pharmacodynamics in DIO mice; assay type: in vivo; design: Energy expenditure efficacy (change relative to vehicle control) / Weight loss efficacy (change relative to vehicle control): concentration or dose not given beside the values; conditions: for Energy expenditure EC50 / Energy expenditure efficacy (change relative to vehicle control) / Weight loss EC50 / Weight loss efficacy (change relative to vehicle control): daily s.c. injections for nine days
Procedure: Indirect calorimetry was used to evaluate the ability of individual peptide analogues to dose-dependently increase energy expenditure (EE) we used metabolic cages and indirect calorimetry measured by the Promethion system. To this end, oxygen consumption was used as a surrogate measure for EE. Substrate preference (fat or carbohydrate) was evaluated using the respiratory exchange ratio (RER). In parallel, behavioral information such as walking distance and water and food intake were recorded.
Prior to experimentation, DIO mice were transferred to habituation cages for at least 10 days (5 days outside and at least 5 days in the Sable Systems gas analyzer module) to acclimatize. For all in vivo compound tests for EE evaluation, mice received subcutaneous injections between 2 and 4 pm.
Energy expenditure and weight loss pharmacodynamics: To evaluate the ability of individual peptide analogues to dose-dependently increase EE by indirect calorimetry in DIO mice. Body weights were monitored from beginning of habituation until end of experiment. After habituation, mice were treated with daily injections of NKA(4-10) analogues at four different doses or vehicle by daily subcutaneous injections for nine days.
EE increase over vehicle was calculated as percent of mean oxygen consumption over a 30-hour period after injection. Prior to injection peptide analogues were dissolved and diluted in in vivo buffer. In order to take into account, the different half-lives for the compounds tested, the doses for each compound were calculated based on the given compound's individual pk-profiles.

hNK2R = target: T1, hNK2R (Homo sapiens, UniProt P21452); experiment: 3H-NKA competitive binding on transfected COS-7 cells; conditions: competition with 3H-NKA, 4 h at 4 C
T1 construct: host or cells: COS-7
T1 sequence (P21452 1-398): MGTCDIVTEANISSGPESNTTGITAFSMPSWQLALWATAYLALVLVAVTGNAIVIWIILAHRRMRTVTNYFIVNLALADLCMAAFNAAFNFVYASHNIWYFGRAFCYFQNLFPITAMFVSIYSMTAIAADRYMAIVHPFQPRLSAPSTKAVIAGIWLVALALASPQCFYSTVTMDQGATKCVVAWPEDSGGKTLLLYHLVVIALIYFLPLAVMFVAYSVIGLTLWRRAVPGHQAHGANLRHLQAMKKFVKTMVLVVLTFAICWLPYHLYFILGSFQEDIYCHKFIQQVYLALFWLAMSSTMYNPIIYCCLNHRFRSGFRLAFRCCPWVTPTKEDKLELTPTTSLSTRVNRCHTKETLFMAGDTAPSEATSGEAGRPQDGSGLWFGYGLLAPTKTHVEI

in vivo = experiment: in vivo; design: species or system mice; conditions: mouse; for half-life: sc, 0.5 mg/kg
Procedure: Pharmacokinetics: To evaluate the in vivo half-life of individual peptide analogues we used wild type lean mice at around 10 weeks of age injected once with a peptide analogue. For each sample time point 3-4 mice were used and blood was drawn from the submandibular vein at indicated time points following injection. Prior to injection mice were given ad libitum access to standard chow diet. Mice were subcutaneously injected with 0.5 mg/kg peptide analogue in a volume of 2 ml/kg. The amount of peptide analogue and metabolite(s) present in blood samples were measured by TF-LC-MS and MetID-LC-MS, respectively. Sample preparation: One volume of plasma is precipitated with three volumes of ethanol (with internal standard). The mixture is centrifuged at 13000 g for 20 min. One volume of supernatant is diluted with two volumes of Milli-Q water (1% formic acid). Calibration curve: peptide analogue was spiked into blank mouse plasma. Range: 0.5 to 2000 nM (linear 1/x2).

| Structure (SMILES) | Energy expenditure EC50 [1] | Energy expenditure efficacy (change relative to vehicle control) [1] | Weight loss EC50 [1] | Weight loss efficacy (change relative to vehicle control) [1] | EC50 (hNK2R) | half-life (in vivo; Half-life) | Reduced weight loss efficacy compared to compound 304, 344 and 383 [1] | Plasma exposure [2 h] (in vivo) | Plasma exposure [26 h] (in vivo) | AUC (in vivo; 330 nmol/kg) | Cmax (in vivo; 330 nmol/kg) | half-life (in vivo) |
| --- | --- | --- | --- | --- | --- | --- | --- | --- | --- | --- | --- | --- |
| CCCC[C@H](NC(=O)[C@H](CC(C)C)N(C)C(=O)CNC(=O)[C@@H](NC(=O)[C@H](Cc1ccccc1)NC(=O)[C@H](CCCCN)NC(=O)[C@H](CC(=O)O)NC(=O)COCCOCCNC(=O)COCCOCCNC(=O)CC[C@H](NC(=O)CCCCCCCCCCCCCCCCC(=O)O)C(=O)O)C(C)C)C(N)=O [compound 304, *Asp;Lys;Phe;Val;Gly;NmLeu;Nle;NH2] | 94 nmol/kg | 11% | 16 nmol/kg | 12% | 25 nM | ≥ 10 h |  |  |  |  |  |  |
| CCCC[C@H](NC(=O)[C@H](CC(C)C)N(C)C(=O)CNC(=O)[C@@H](NC(=O)[C@H](Cc1ccc(O)cc1)NC(=O)[C@H](CCCCN)NC(=O)[C@H](CC(=O)O)NC(=O)COCCOCCNC(=O)COCCOCCNC(=O)CC[C@H](NC(=O)CCCCCCCCCCCCCCCCC(=O)O)C(=O)O)C(C)C)C(N)=O [compound 305, *Asp;Lys;Tyr;Val;Gly;NmLeu;Nle;NH2] ({C18 diacid-γGlu-AEEA-AEEA}-DKYVG[NMeL][Nle]-NH2) | 34 nmol/kg | 11% | 69 nmol/kg | 6% | 21 nM and 210 nM and ~100 nM | 5.5 h | approximately 50% | 5.364 µM | 183 nM | 28.8 µM·h | 3.45 µM |  |
| COCC[C@H](NC(=O)[C@H](CC(C)C)N(C)C(=O)CNC(=O)[C@@H](NC(=O)[C@H](Cc1ccccc1)NC(=O)[C@H](CCCCN)NC(=O)[C@H](CC(=O)O)NC(=O)COCCOCCNC(=O)COCCOCCNC(=O)CC[C@H](NC(=O)CCCCCCCCCCCCCCCCC(=O)O)C(=O)O)[C@@H](C)O)C(N)=O [compound 383, *Asp;Lys;Phe;Thr;Gly;NmLeu;Metox;NH2] ({C18 diacid-γGlu-AEEA-AEEA}-DKFTG[NMeL][hSer](Me)-NH2) | 110 nmol/kg | 11% | 83 nmol/kg | 11% | 11 nM | ≥ 10 h |  |  |  |  |  |  |
| COCC[C@H](NC(=O)[C@H](CC(C)C)N(C)C(=O)CNC(=O)[C@@H](NC(=O)[C@H](Cc1ccc(O)cc1)NC(=O)[C@H](CCCCN)NC(=O)[C@H](CC(=O)O)NC(=O)COCCOCCNC(=O)COCCOCCNC(=O)CC[C@H](NC(=O)CCCCCCCCCCCCCCCCC(=O)O)C(=O)O)C(C)C)C(N)=O [compound 344, *Asp;Lys;Tyr;Val;Gly;NmLeu;Metox;NH2] ({C18 diacid-γGlu-AEEA-AEEA}-DKYVG[NMeL][hSer](Me)-NH2) | 13 nmol/kg | 12% | 130 nmol/kg | 10% | 94 nM and 90 nM | ≥ 10 h |  |  |  |  |  | 10.3 h |
